pKi: −log10 of the molar value.

One experiment addresses PI3K-gamma (Homo sapiens, UniProt P48736). The experiment in a line: PI3K Inhibition Assay. The format is biochemical. Here is the method:
Using a Biomek FX from Beckman Coulter, 1.5 μL of each of ten 2.5-fold serial dilutions of a compound of the invention in 100% DMSO was added to an individual well (hereafter, “test well”) in a 96 well polystyrene plate [Corning, Costar Item No. 3697]. One test well also contained 1.5 μL of DMSO with no compound. […] Using a Titertek Multidrop, 50 μL of Reaction Mix [100 mM HEPES pH 7.5, 50 mM NaCl, 10 mM DTT, 0.2 mg/mL BSA, 60 μM phosphatidylinositol(4,5)bisphosphate diC16 (PI(4,5)P2; Avanti Polar Lipids, Cat. No. 840046P) and PI3K isoform of interest (see Table 3 for isoform concentrations)] was added to each well. To initiate the reaction, 50 μL of ATP Mix [20 mM MgCl2, 6 μM ATP (100 μCi/μmole ^33P-ATP)] was added each well, followed by incubating the wells for 30 min. at 25° C. Final concentrations in each well were 50 mM HEPES 7.5, 10 mM MgCl2, 25 mM NaCl, 5 mM DTT, 0.1 mg/mL BSA, 30 μM PI(4,5)P2, 3 μM ATP, and the PI3K isoform of interest (see Table 2). Final compound concentrations in each well ranged from 10 μM to 1 nM.
After incubation, the reactions in each well were quenched by addition of 50 μL of stop solution [30% TCA/Water, 10 mM ATP]. […] 50 μL of scintillation fluid was added to each well and the plate read on a Perkin-Elmer TopCount™ NXT liquid scintillation counter to obtain ^33P-counts representing inhibition values. […]

The next experiment concerns activated microglia. The experiment can be described thus: Microglia Activation Assay (LPS-injected mice, Iba1 IHC of brain). As to conditions: 10 mg/kg b.i.d. orally by gavage, 4 doses, LPS 0.5 mg/kg i.p. for three days. Type of experiment: in vivo, Female C57B1/6J mice.

PI3K-gamma, sequence (P48736 whole entry, species assumed, canonical isoform): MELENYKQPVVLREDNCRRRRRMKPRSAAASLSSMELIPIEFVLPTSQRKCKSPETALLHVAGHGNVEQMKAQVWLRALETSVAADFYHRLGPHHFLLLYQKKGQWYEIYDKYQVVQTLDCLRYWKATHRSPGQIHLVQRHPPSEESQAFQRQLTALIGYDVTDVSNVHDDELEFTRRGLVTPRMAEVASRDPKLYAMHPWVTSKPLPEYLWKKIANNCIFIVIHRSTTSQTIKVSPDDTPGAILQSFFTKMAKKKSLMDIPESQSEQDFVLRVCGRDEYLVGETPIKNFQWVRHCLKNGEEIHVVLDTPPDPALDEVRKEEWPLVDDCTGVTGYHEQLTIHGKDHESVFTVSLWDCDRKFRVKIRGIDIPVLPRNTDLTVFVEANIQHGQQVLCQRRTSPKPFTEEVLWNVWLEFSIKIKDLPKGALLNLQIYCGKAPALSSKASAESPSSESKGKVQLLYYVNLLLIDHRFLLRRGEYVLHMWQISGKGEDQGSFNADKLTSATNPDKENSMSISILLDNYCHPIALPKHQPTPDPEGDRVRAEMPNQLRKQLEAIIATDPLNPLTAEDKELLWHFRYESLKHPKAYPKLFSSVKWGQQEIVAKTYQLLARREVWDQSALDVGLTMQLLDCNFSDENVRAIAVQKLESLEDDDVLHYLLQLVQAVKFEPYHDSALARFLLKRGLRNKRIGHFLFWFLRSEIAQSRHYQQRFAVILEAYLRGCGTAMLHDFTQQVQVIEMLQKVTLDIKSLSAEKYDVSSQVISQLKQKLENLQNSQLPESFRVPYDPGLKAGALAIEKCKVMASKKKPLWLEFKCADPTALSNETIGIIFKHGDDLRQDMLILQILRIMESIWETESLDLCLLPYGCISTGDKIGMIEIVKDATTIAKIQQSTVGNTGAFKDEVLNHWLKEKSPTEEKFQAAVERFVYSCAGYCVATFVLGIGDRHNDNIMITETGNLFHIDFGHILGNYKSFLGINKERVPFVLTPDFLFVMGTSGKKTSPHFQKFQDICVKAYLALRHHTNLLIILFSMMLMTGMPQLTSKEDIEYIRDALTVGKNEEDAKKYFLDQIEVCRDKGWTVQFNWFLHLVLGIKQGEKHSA
Method for activated microglia: Female C57B1/6J mice (7 weeks old) were purchased from Jackson Laboratory (Maine, US). Animals were acclimated for a week at standard laboratory conditions (12 hrs light cycles) with free access to rodent chow and water. All procedures were in accordance with the National Institute of Health Guidelines for the care and Use of Laboratory Animals and were approved by IACUCC. The endotoxin Lipopolysaccharide (LPS) (E. coli 011:B4, cat#437627) was purchased from Calbiochem. LPS was dissolved in PBS buffer at a concentration of 0.05 mg/ml and stored in frozen aliquots. At the start of the study, mice received an intraperitoneal (i.p.) injection of LPS (0.5 mg/kg) for three consecutive days. Therapeutic treatment with VRT compounds was started together with the 2nd LPS administration and maintained throughout the study. Compound was dosed twice a day orally by gavage for a total of 4 doses. 24 h following the last LPS injection, and 2 hrs following the last VRT dose, animals were sacrificed by CO2 asphyxiation. […]
Digital images were captured using the Aperio ScanScope Slide Scanner (Aperio Technologies, Vista, Calif.). Images were captured at 20× optical magnification, and analyzed using the software Definiens Developer XD. […] Compound efficacy was calculated as percent decrease in number of activated microglia relative to vehicle control.

Take `COc1cc(-c2nc3c(cc2C)C(=O)N(c2cn[nH]c2)C3)cnc1OC` [Compound 238, 2-(5,6-dimethoxypyridin-3-yl)-3-methyl-6-(1H-pyrazol-4-yl)-6,7-dihydro-5H-pyrrolo[3,4-b]pyridin-5-one]: the pKi on PI3K-gamma is 5.60 to 6.30.

For the compound `Cc1cc(-c2cncc(OC(F)F)c2)nc2c1C(=O)N(c1cnn(CC(F)(F)F)c1)C2` [Compound 271], the “percent decrease in number of activated microglia relative to vehicle control” value in the experiment with activated microglia is 39%.

What is called pKi is the negative decadic logarithm of the Ki, by convention in mol/L.

(Values after patent US20120040950A1, “ISOINDOLINONE INHIBITORS OF PHOSPHATIDYLINOSITOL 3-KINASE” (VERTEX PHARMACEUTICALS INCORPORATED, priority 2009, published 2012).)
